This passage reports Efficacy and logP results from patent US9084424B2, “N-benzyl heterocyclic carboxamides” (BAYER INTELLECTUAL PROPERTY GMBH, priority 2010, dated 2015).

One data set has as its system Pyrenophora teres. Kind of data set: In vivo preventive test on Pyrenophora teres (barley). To be noted: preventive spray, 500 ppm of active ingredient, evaluated 7-9 days after inoculation. Put shortly:
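Young barley plants were sprayed with compound formulated in N,N-dimethylacetamide/emulsifier and diluted with water, then inoculated with P. teres spores one day later. After 48 h at 22° C., 100% humidity, plants stood in a greenhouse (~20° C., ~80% humidity); efficacy versus untreated control was scored 7-9 days post-inoculation.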

A short description of data set [1]: log P by HPLC on reversed-phase column (EEC Directive 79/831 Annex V.A8). In kind it is physicochemical. To be noted: 0.1% aqueous formic acid and acetonitrile, linear gradient 10% to 90% acetonitrile. Put shortly: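 Calibration relied on straight-chain alkan-2-ones with 3 to 16 carbon atoms and known log P, with sample values read by linear interpolation of retention time between two adjacent standards. Separation at 40° C used 0.1% aqueous formic acid with acetonitrile rising linearly from 10% to 90%. UV spectra from 200 nm to 400 nm at chromatographic peak maxima gave lambda-max.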

The test system of the next data set is Alternaria solani. In words: In vivo preventive test on Alternaria solani (tomato). The conditions noted are these: preventive spray, 500 ppm of active ingredient, evaluated 7 days after inoculation. A digest of the protocol:
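Young tomato plants sprayed with compound formulated in DMF with alkylarylpolyglycolether emulsifier and diluted in water, then inoculated one day later with A. solani spore suspension. Kept 1 day at about 22 °C, 100% humidity, then about 20 °C, 96% humidity. Efficacy scored 7 days post-inoculation, 0% = untreated control, 100% = no disease.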

In the next data set the test system is Sphaerotheca fuliginea. In words: In vivo preventive test on Sphaerotheca fuliginea (cucumber). The conditions noted are these: preventive spray, 500 ppm of active ingredient, evaluated 7 days after inoculation. As to the method:
In Vivo Preventive Test on Sphaerotheca fuliginea (Cucumber)
Solvent: 49 parts by weight of N,N-dimethylformamide
Emulsifier: 1 part by weight of alkylarylpolyglycolether
(§1) To produce a suitable preparation of active compound, 1 part by weight of active compound is mixed with the stated amounts of solvent and emulsifier, and the concentrate is diluted with water to the desired concentration.
To test for preventive activity, young plants are sprayed with the preparation of active compound at the stated rate of application. After the spray coating has dried on, the plants are inoculated with an aqueous spore suspension of Sphaerotheca fuliginea. The plants are then placed in a greenhouse at approximately 23° C. and a relative atmospheric humidity of approximately 70%.
The test is evaluated 7 days after the inoculation. 0% means an efficacy which corresponds to that of the untreated control, while an efficacy of 100% means that no disease is observed.

Another data set concerns Leptosphaeria nodorum. In words: In vivo preventive test on Leptosphaeria nodorum (wheat). The conditions noted are these: preventive spray, 500 ppm of active ingredient, evaluated 7-9 days after inoculation. As to the method: In Vivo Preventive Test on Leptosphaeria nodorum (Wheat)
(§2) Solvent: 49 parts by weight of N,N-dimethylacetamide
(§3) Emulsifier: 1 part by weight of alkylaryl polyglycol ether
as §1
To test for preventive activity, young plants are sprayed with a preparation of active compound at the stated rate of application. One day after this treatment, the plants are inoculated with an aqueous spore suspension of Leptosphaeria nodorum. The plants remain for 48 hours in an incubation cabinet at 22° C. and a relative atmospheric humidity of 100%. Then the plants are placed in a greenhouse at a temperature of approximately 22° C. and a relative atmospheric humidity of approximately 90%.
The test is evaluated 7-9 days after the inoculation. 0% means an efficacy which corresponds to that of the untreated control, while an efficacy of 100% means that no disease is observed.
Under these conditions, good (at least 70%) to excellent protection (at least 95%) is observed at a dose of 500 ppm of active ingredient with the following compounds from table D: […]

Another data set concerns Puccinia triticina. In words: In vivo preventive test on Puccinia triticina (wheat). To be noted: preventive spray, 500 ppm of active ingredient, evaluated 8 days after inoculation. The procedure: In Vivo Preventive Test on Puccinia triticina (Wheat)
as §2, §3
To produce a suitable preparation of active compound, 1 part by weight of active compound or active compound combination is mixed with the stated amounts of solvent and emulsifier, and the concentrate is diluted with water to the desired concentration.
To test for preventive activity, young plants are sprayed with the preparation of active compound or active compound combination at the stated rate of application.
After the spray coating has been dried, the plants are sprayed with a spore suspension of Puccinia triticina. The plants remain for 48 hours in an incubation cabinet at approximately 20° C. and a relative atmospheric humidity of approximately 100%.
The plants are placed in the greenhouse at a temperature of approximately 20° C. and a relative atmospheric humidity of approximately 80%.
The test is evaluated 8 days after the inoculation. 0% means an efficacy which corresponds to that of the untreated control, while an efficacy of 100% means that no disease is observed.

Setting [2] is: HPLC, reversed-phase C 18, 40° C.
[3] abbreviates: HPLC on reversed-phase column (C 18), 40° C.

For the compound `Cn1nc(C(F)F)c(C(=O)NC(C)(C)c2ccc(Cl)cc2Cl)c1F` [Example 39], the Efficacy in the data set with Pyrenophora teres came to 95%; in the data set with Alternaria solani, 70%; in the data set with Sphaerotheca fuliginea, 95%; in the data set on Leptosphaeria nodorum, 90%. In addition, the lipophilicity (logP) (usually a log measure of how a compound divides between an organic and an aqueous phase) in data set [1] (setting [2]) came to 4.39.

In the case of `CC(C)c1ccccc1CNC(=O)c1c(C(F)F)nn(C)c1F` [Example 74], the Efficacy came out at 100% in the data set on Pyrenophora teres, 95% in the data set on Alternaria solani, 95% with Sphaerotheca fuliginea and 80% in the data set on Leptosphaeria nodorum. In data set [1] (setting [2]), this compound gave a logP of 3.02.

On to `CC(c1cc(Cl)cc(Cl)c1)N(C)C(=S)c1c(C(F)F)nn(C)c1F` (centres unmarked) [Example 118], for which the Efficacy in the data set on Pyrenophora teres is on record as 100%; in the data set with Alternaria solani, 100%; in the data set with Sphaerotheca fuliginea it was 95%; in the data set on Leptosphaeria nodorum, 70%. The logP in data set [1] (setting [3]) was 4.24.

The compound `Cn1nc(C(F)F)c(C(=O)N(Cc2ncc(Cl)cc2Cl)C2CCCC2)c1Cl` [Example 184] had a logP in data set [1] (setting [3]) of 4.11. For the same compound, the Efficacy in the data set on Puccinia triticina stood at 70%.

On to `C#CCN(Cc1ccccc1[Si](C)(C)C)C(=O)c1c(C(F)F)nn(C)c1F` [Example 101], for which the figures for the Efficacy in the data set on Pyrenophora teres, in the data set on Alternaria solani and in the data set on Puccinia triticina were 80%, 70% and 90%, respectively. In addition, the logP in data set [1] (setting [2]) turned out to be 3.93.

With `CCN(Cc1ccccc1[Si](C)(C)C)C(=O)c1c(C(F)F)nn(C)c1F` [Example 99], the Efficacy in the data set with Pyrenophora teres is listed as 95%; with Alternaria solani it was 95%; in the data set on Puccinia triticina, 100%; in the data set on Sphaerotheca fuliginea it was 95%. Besides, in data set [1] (setting [2]), the logP was determined as 4.09.

Consider `CON(Cc1ncc(Cl)cc1Cl)C(=O)c1c(C(F)F)nn(C)c1F` [Example 181], for which the Efficacy is 100% in the data set on Pyrenophora teres, 80% in the data set on Alternaria solani, 70% in the data set on Puccinia triticina and 70% in the data set on Leptosphaeria nodorum. For the same compound, the logP in data set [1] (setting [3]) was 2.73.

Turning to `Cn1nc(C(F)F)c(C(=O)NCc2ccccc2SC(F)(F)F)c1Cl` [Example 106], the Efficacy with Pyrenophora teres is reported as 90%; with Puccinia triticina, 80%. Besides, the logP in data set [1] (setting [3]) was 3.29.

Take `CON(Cc1ccccc1C(C)C)C(=O)c1c(C(F)F)nn(C)c1F` [Example 76]: the logP in data set [1] (setting [2]) worked out at 3.37. Also, the results for the Efficacy with Alternaria solani, in the data set with Sphaerotheca fuliginea and in the data set on Leptosphaeria nodorum were 94%, 93% and 89%, respectively.

In data set [1] (setting [2]), `Cn1nc(C(F)F)c(C(=O)N(Cc2ccccc2[Si](C)(C)C)C2CCC2)c1F` [Example 98] showed a logP of 4.61. Further, the Efficacy turned out to be 70% in the data set with Alternaria solani, 95% with Puccinia triticina and 96% with Sphaerotheca fuliginea.

For `CC(c1cc(Cl)ccc1Cl)N(C)C(=O)c1c(C(F)F)nn(C)c1F` (centres unmarked) [Example 56], the Efficacy in the data set with Pyrenophora teres is reported as 100%; in the data set on Alternaria solani it was 100%; in the data set on Sphaerotheca fuliginea, 95%; in the data set on Leptosphaeria nodorum it was 70%. Besides, the logP in data set [1] (setting [2]) turned out to be 3.15.

Take `CC(c1ccccc1Cl)N(C)C(=S)c1c(C(F)F)nn(C)c1F` (racemic) [Example 18]: the Efficacy amounted to 100% in the data set on Pyrenophora teres, 95% with Alternaria solani, 90% in the data set with Sphaerotheca fuliginea and 95% in the data set with Leptosphaeria nodorum. The compound further displayed a log partition coefficient (logP) in data set [1] (setting [2]) of 3.44.

As to `Cn1nc(C(F)F)c(C(=O)NC2(c3ccc(Cl)c(C(F)(F)F)c3)CC2)c1Cl` [Example 126], the Efficacy with Pyrenophora teres was 95%; in the data set on Puccinia triticina, 78%. In data set [1] (setting [3]), this compound returned a logP of 3.41.

`CN(Cc1ncc(Cl)cc1Cl)C(=O)c1c(C(F)F)nn(C)c1Cl` [Example 180]: the Efficacy in the data set on Pyrenophora teres was found to be 100%; in the data set on Alternaria solani it was 80%; with Puccinia triticina, 80%. This compound also registered a lipophilicity (logP) in data set [1] (setting [3]) of 2.73.

On to `C=CCN(Cc1ccccc1[Si](C)(C)C)C(=O)c1c(C(F)F)nn(C)c1F` [Example 100], for which the logP in data set [1] (setting [2]) worked out at 4.27. Also, the Efficacy in the data set with Alternaria solani and with Puccinia triticina was 80% throughout.
